Test results published in US20220275371A1, “USE OF RAB7 GTPASE (RAB7) INHIBITORS IN ENHANCING PERMEABILITY OF THE BLOOD BRAIN BARRIER (BBB)” (Children's Medical Center Corporation, priority 2019, published 2022).
Structures can show the parent of a compound that is named as a salt.

How the values were obtained:
Assay type in all cases: cell-based, human
astrocytes = test: TdTom-EV uptake by astrocytes with endocytosis inhibitors (flow cytometry); settings: 30 min pretreatment: chlorpromazine 20 μM, EIPA 50 μM, filipin III 10 μM, ML141 100 μM, CAS 1177865-17-6 10 μM; 3 hours with EVs
From the text: To elucidate the mechanisms underlying the uptake of breast cancer-derived EVs by astrocytes, the possibility of the involvement of specific endocytosis mechanism(s) in this uptake was explored. Endocytic pathways such as macropinocytosis, clathrin-dependent and caveolin-dependent endocytosis have been commonly reported to be involved in the uptake of EVs by different cell types^16.
Next, the role of clathrin-caveolin-independent pathways in EV uptake was explored, focusing on rac1 and Cdc42, two major players in this process^17.
To evaluate the uptake of EVs by astrocytes for endocytosis inhibition studies, astrocytes were treated with chlorpromazine hydrochloride (Millipore Sigma, Cat #C8138, 20 μM), 5-(N-Ethyl-N-isopropyl) amiloride (EIPA) (50 μM, Tocris, Cat #3378), and filipin III (10 μM, Millipore Sigma, Cat #F4767), CDC42/Rac1 inhibitor, ML141 (100 μM, Millipore Sigma, Cat #217708), and rac1 inhibitor, CAS 1177865-17-6 (10 μM, Millipore Sigma, Cat #553502) for 30 min.

[1] = tested on: brain endothelial monolayer; test: Static Transwell BBB model, transport of Gaussia luciferase-labeled Br-EVs; settings: 30 min pretreatment, then Br-EVs 2 hours at 37° C.
Description: To verify that the source of the detected signal in the abluminal chamber was the luciferase associated with intact EVs as opposed to free luciferase, the media from the lower chamber was ultracentrifuged on an iodixanol OPTIPREP™ density gradient. As a positive control, Gaussia luciferase-labeled Br-EVs were added directly to the top of a gradient for ultracentrifugation.
To evaluate the effect of temperature, filters were incubated at either 4° C. or 37° C. To evaluate the effect of endocytosis, filters were pretreated with Dynasore hydrate (Millipore Sigma, Cat #D7693) for 30 minutes prior to adding the EVs and then incubated at 37° C. The media from the lower chamber was collected after 2 hours and luminescence intensity was measured as described before. […] After 4 hours of ultracentrifugation, different density fractions were isolated and luminescence intensity was measured for each fraction. […] After 2 hours of incubation, the permeability of the filters to 10 KDa ALEXA FLUOR™ 647 Dextran and 70 KDa FITC-dextran was measured as described above.

brain endothelial cells = test: TdTom-Br-EV uptake by brain endothelial cells with endocytosis inhibitors (flow cytometry); settings: 30 min pretreatment: chlorpromazine 20 μM, ML141 100 μM, EIPA 100 μM, cytochalasin D 500 nM, filipin III 10 μM; 3 hours with EVs
From the text: The mechanistic details of Br-EV transport was further explored through brain endothelial cells by focusing on the three major steps of transcytosis: 1) endocytosis through the apical (luminal) membrane of brain endothelial cells, 2) transfer through the endocytic pathway, and 3) release into the extracellular environment from the basolateral (abluminal) membrane. To evaluate the mechanism(s) of uptake, brain endothelial cells were pretreated with chemical inhibitors of the different endocytosis pathways and measured the uptake of TdTom-Br-EVs via flow cytometry.
To evaluate the uptake of EVs by brain ECs, astrocytes and pericytes, cells grown to confluence in 96-well plates were incubated with 2×10^9 particle/well of tdTomato P- and Br-EVs. After 2 hours of incubation, cells were washed for 3 times and were fixed for imaging. Images from four different fields were taken using a Zeiss Fluorescent microscope and the level of fluorescence intensity was analyzed using the ImageJ software. To eliminate the confounding effect of cell size on the uptake level, fluorescent intensity for tdTom-EVs was measured per unit of cell surface area. For endocytosis inhibition studies, brain ECs cultured in 12-well plates were treated with chlorpromazine hydrochloride (Millipore Sigma, Cat #C8138, 20 μM), ML141 (100 μM, Millipore Sigma, Cat #217708), 5-(N-Ethyl-N-isopropyl) amiloride (EIPA) (100 μM, Tocris, Cat #3378), cytochalasin D (500 nM, Tocris, Cat #1233), and filipin III (10 μM, Millipore Sigma, Cat #F4767) for 30 minutes prior to addition of TdTom-Br-EVs (10^10 particle/well). Following 3 hours of incubation with EVs, cells were washed and EV uptake was measured by flow cytometry using a BD FACSCalibur flow cytometer (BD Biosciences, San Jose, Calif.).

| SMILES | uptake of breast cancer-derived EVs by astrocytes (astrocytes) | abluminal signal of Br-EV transport [1] | uptake of Br-EVs by brain endothelial cells (brain endothelial cells) |
| --- | --- | --- | --- |
| CCN(CC)CCCC(C)Nc1nc(C)cc(Nc2ccc3nc(C)cc(N)c3c2)n1.Cl.Cl.Cl (centres unmarked) [CAS 1177865-17-6] | no effect | – | – |
| O=C(N/N=C/c1ccc(O)c(O)c1)c1cc2ccccc2cc1O [Dynasore] | – | dose-dependent decrease | – |
| CCN(c1nc(N)c(C(=O)N=C(N)N)nc1Cl)C(C)C [EIPA, 5-(N-Ethyl-N-isopropyl) amiloride] | did not affect | – | significant decrease |
| CCCCC[C@@H](O)[C@H]1C(=O)O[C@H](C)[C@@H](O)/C=C/C=C/C=C/C=C/C=C(\C)[C@@H](O)C[C@H](O)C[C@H](O)C[C@H](O)C[C@H](O)C[C@H](O)C[C@@H]1O [Filipin, filipin III] | did not affect | – | no effect |
| COc1ccc(C2=NN(c3ccc(S(N)(=O)=O)cc3)C(c3ccccc3)C2)cc1 (centres unmarked) [ML141] | significantly decreased | – | significantly decreased |
| CN(C)CCCN1c2ccccc2Sc2ccc(Cl)cc21 [chlorpromazine, chlorpromazine hydrochloride] | did not affect | – | significantly decreased |
| C=C1[C@@H](C)[C@H]2[C@H](Cc3ccccc3)NC(=O)[C@]23[C@H](OC(C)=O)/C=C/[C@@](C)(O)C(=O)[C@@H](C)C/C=C/[C@H]3[C@@H]1O [cytochalasin D] | – | – | significant decrease |
